Test results published in patent publication US7678390B2, “Carbon monoxide as a biomarker and therapeutic agent” (priority 1999, dated 2010).

What was measured:
[1] = test system: p38 MAP kinase; assay: LPS-induced MAP kinase activation, Western blot (p38); format: cell-based, mouse; settings: RAW 264.7 macrophages, LPS in the presence of CO
Excerpt: (§1) Animals. Male C57BL/6 and IL-10 (−/−) mice were purchased from Jackson Laboratory (Bar Harbor, Me.), and allowed to acclimate for one week with rodent chow and water ad libitum. The MKK (−/−) mice were generated as previously described [Lu, et al., EMBO J. 18:1845-1857 (1999)]. Wild type littermates were used as controls. All animals were housed in accordance with guidelines from the American Association for Laboratory Animal Care and Research Protocols and were approved by the Animal Care and Use Committee of Yale University School of Medicine. Reagents. All reagents were purchased from Sigma Chemical Co. (St Louis, Mo.) unless specified otherwise. Plasmid Construct. Plasmid pSFFV/HO-1 was constructed by insertion of the rat HO-1 cDNA [Shibahara, et al., Proc. Natl. Acad. Sci. USA. 82: 7865-7869 (1985)] downstream of the Friend spleen focus-forming virus 5′ long-terminal repeat in the mammalian expression vector pSFFV/neo [Fuhlbrigge, et al, Proc. Natl. Acad. Sci. USA. 85: 5649-5653 (1988)] (kindly provided by Stanley Korsmeyer). Transfection. […] Gas samples were taken by the analyzer through a port in the top of the chambers at a rate of 1 L/min and analyzed by electrochemical detection, with a sensitivity of 10-600 ppm. Concentration levels were measured hourly and there were no fluctuations in the CO concentrations once the chamber had equilibrated (approximately 5 min). […]

[2] = test system: IL-10(−/−) null mice given LPS; assay: LPS-induced serum TNF-α in IL-10(-/-) null mice; format: in vivo; settings: Mus musculus, IL-10(−/−) mice, CO 250 ppm, 1 h, read-out: inhibition of serum TNF-α levels
Excerpt: as §1

[3] = test system: mice given LPS (wild type); assay: LPS-induced serum cytokines in mice exposed to CO; format: in vivo, mouse
Excerpt: Animals. Male C57BL/6 and IL-10 (−/−) mice were purchased from Jackson Laboratory (Bar Harbor, Me.), and allowed to acclimate for one week with rodent chow and water ad libitum. The MKK (−/−) mice were generated as previously described [Lu, et al., EMBO J. 18:1845-1857 (1999)]. Wild type littermates were used as controls. All animals were housed in accordance with guidelines from the American Association for Laboratory Animal Care and Research Protocols and were approved by the Animal Care and Use Committee of Yale University School of Medicine. Reagents. All reagents were purchased from Sigma Chemical Co. (St Louis, Mo.) unless specified otherwise. Plasmid Construct. Plasmid pSFFV/HO-1 was constructed by insertion of the rat HO-1 cDNA [Shibahara, et al., Proc. Natl. Acad. Sci. USA. 82: 7865-7869 (1985)] downstream of the Friend spleen focus-forming virus 5′ long-terminal repeat in the mammalian expression vector pSFFV/neo [Fuhlbrigge, et al, Proc. Natl. Acad. Sci. USA. 85: 5649-5653 (1988)] (kindly provided by Stanley Korsmeyer). Transfection. Stable transfections were carried out by the calcium phosphate precipitation technique as previously described [Alam, J., J. Biol. Chem. 269: 25049-25056 (1994)]. Briefly, RAW cells were plated (1×10^6/10 cm plate) and 16 h later, transfected with […] of pSFFV/neo or pSFFV/HO-1. Cells were exposed to the DNA-CaPO4 precipitate for 6 h, shocked by a 1 min treatment with glycerol in phosphate-buffered saline and cultured for an additional 24 h in complete medium before addition of G418. Transfectants were selected over a 3-week period in the presence of G418 (up to […]) and individual clones were isolated by limited dilution. Cell Culture Experimentation. RAW 264.7 mouse peritoneal macrophages were purchased from […] (Rockville, Md.) and primary culture of rat pulmonary vascular smooth muscle cells were harvested from male Sprague Dawley rats (250-300 g) as previously described [Gunther, et al., J. Cell. Biol. 92: 289-298 (1982).]. Both cell types were grown in DMEM containing 10% FBS and gentamicin ([…]) in a humidified atmosphere of 5% CO2/balanced air or 250 ppm CO/5% CO2/balanced air. After a 2 h pretreatment with either CO or air, LPS ([…]) or sterile saline was added to the culture media and the culture plates were returned to the chamber(s). At various time points, cell plates were removed from the chamber to collect media and/or cells for Western analysis. CO Exposures. Mice or macrophages were exposed to compressed air or 250 ppm CO. For cell culture experiments, 5% CO2 was also present for buffering requirements. CO at a concentration of 1% (10,000 ppm) in compressed air was mixed with compressed air with or without CO2 in a stainless steel mixing cylinder before delivery into the exposure chamber. Flow into the 3.70-ft^2 plexiglass animal chamber was maintained at 12 L/min and into the 1.2 ft^2 cell culture chamber at a flow of 2 L/min. The cell culture chamber was humidified and maintained at 37° C. A CO analyzer (Interscan, Chatsworth, Calif.) was used to measure CO levels continuously in the chambers. Gas samples were taken by the analyzer through a port in the top of the chambers at a rate of 1 L/min and analyzed by electrochemical detection, with a sensitivity of 10-600 ppm. Concentration levels were measured hourly and there were no fluctuations in the CO concentrations once the chamber had equilibrated (approximately 5 min). Animal Experimentation. Mice were prebled from the retroorbital sinus (0.25 ml) and then exposed to CO (250 ppm) or room air for 1 h prior to administration of LPS (1 mg/kg, i.p.), E. coli serotype O127:B8. 1 and 16 h thereafter, they were removed from the exposure apparatus individually and a blood sample was obtained via the retroorbital sinus. After the blood collection, the mice were immediately returned to the exposure chamber. […]

[4] = test system: RAW 264.7 cells; assay: Nitrate/nitrite analysis of cell culture media; format: cell-based, mouse; settings: 1 h post LPS, presence or absence of CO
Description: Nitrate/Nitrite Analysis. Both analytes were measured in the cell culture media which had been ultrafiltered to remove all proteins greater than 10,000 molecular weight. All samples were than analyzed according to the assay kit protocols. (R & D, Minneapolis, Minn.). cGMP Radioimmunoassay (RIA) in macrophages. Macrophages or vascular smooth muscle cells were exposed to CO (250 ppm) or air. 20 min before the end of the exposure 1 mM of 3-isobutyl-1-methylxanthine (IBMX) was added to the cells to prevent phosphodiesterase degradation of cGMP. After 2 h of exposure, cells were removed from the exposure chamber, rinsed with PBS and then 0.5 ml of 75% EtOH was added to the plate and cells were scraped and disrupted via sonication for 5 s. Samples were then centrifuged at 2000 g for 10 min. Supernatants were transferred to fresh tubes and evaporated to dryness. cGMP concentration in the cell extracts was determined by radioimmunoassay (NEN, Boston, Mass.) according to manufacturer's instructions. cGMP was normalized to protein concentration as determined by Bradford assay. Statistical Analysis. Data are expressed as the mean±SE. Differences in measured variables between experimental and control group were assessed using Student's t tests. Statistical calculations were performed on a Macintosh personal computer using the Statview II Statistical Package (Abacus Concepts, Berkeley, Calif.). […]

[C-]#[O+] [CO, carbon monoxide]
LPS-induced p38 MAP kinase activation [1]: significantly augmented | inhibition at 250 ppm [2]: 66% | TNF-α or IL-10 production without LPS ([3]; CO (250 ppm) alone, MKK3(−/−) or wild type(+/+) mice): no effect | IL-10 in response to LPS in vivo ([3]; LPS 1 mg/kg, mice, CO 250 ppm): augmentation | EC50 for attenuation of LPS-induced TNF-α production in vivo ([3]; LPS 1 mg/kg, mice, dose-dependent): 69.9 ppm | LPS-induced TNF-α production in vivo ([3]; LPS 1 mg/kg, mice, in the presence of CO): significant attenuation | inhibition at 250 ppm ([3]; Mus musculus, wild type controls, LPS, CO 250 ppm, 1 h, read-out: inhibition of serum TNF-α levels): 73% | LPS-induced serum TNF-α production ([3]; wild type(+/+) littermates, LPS 1 mg/kg, 250 ppm CO): attenuated levels | LPS-induced IL-10 levels ([3]; wild type(+/+) mice, LPS 1 mg/kg, 250 ppm CO): augmented | nitrate or nitrite levels [4]: no increases
